These results are taken from patent publication US7241777B2, “Benzylimidazolyl substituted 2-quinoline and quinazoline derivatives for use as farnesyl transferase inhibitors” (Janssen Pharmaceutica N.V., priority 2002, dated 2007).

As usually defined, the inhibition is the drop in the measured response relative to a control, in per cent. A word on the melting point: it is the temperature, or range, at which the solid turns liquid.

The target in data set [1] is farnesyl protein transferase (Homo sapiens, UniProt P49354+P49356). Put plainly: In vitro assay for inhibition of farnesyl protein transferase. Format: biochemical. The conditions noted are these: for IC50: negative log value of the IC50-value; for inhibition at 0.1 µM: read-out: % of inhibition at 10^−7 M. Here is the method:
“In Vitro Assay for Inhibition of Farnesyl Protein Transferase”
An in vitro assay for inhibition of farnesyl transferase was performed essentially as described in WO 98/40383pages 33–34.

Where [2] appears, read: read-out: Enzyme activity pIC50 (converted).

Like-named read-outs stand apart in the source and are kept apart here. Some results are limits rather than exact numbers.

Consider `Cn1c(=O)cc(-c2cccc(Cl)c2)c2cc(C(O)c3cncn3Cc3ccc(C#N)cc3)ccc21` (stereo not drawn) [Compound 3, 4-[[5-[[4-(3-chlorophenyl)-1,2-dihydro-1-methyl-2-oxo-6-quinolinyl]hydroxymethyl]-1H-imidazol-1-yl]methyl]-benzonitrile], for which the melting point was 150 °C. The IC50 in data set [1] (setting [2]) was 5.45 nM. The IC50 in data set [1] (read-out: pIC50 (converted)) is 5.01 nM. For the same compound, the inhibition at 0.1 µM in data set [1] stood at 92%.
`O=C(c1ccc2c(c1)c(-c1cccc(Cl)c1)cc1nnnn12)c1cncn1Cc1ccc(Cl)cc1` [Compound 4] yielded a melting point of 105 °C. The IC50 in data set [1] (setting [2]) is more than 100 nM. Also, in data set [1], the inhibition at 0.1 µM was found to be 26%.
`OC(c1ccc2c(c1)c(-c1cccc(Cl)c1)cc1nnnn12)c1cncn1Cc1ccc(Cl)cc1` (stereo not drawn) [Compound 5] gave a melting point of 140 °C. Also, the IC50 in data set [1] (setting [2]) was more than 100 nM. Besides, in data set [1], the inhibition at 0.1 µM was found to be 32%.
Compound `Cn1c(=O)cc(-c2cccc(Cl)c2)c2cc(C(=O)c3cncn3Cc3ccccc3)ccc21` [Compound 7] displayed a melting point of 192 °C.
In turn, `Cn1c(=O)cc(-c2cccc(Cl)c2)c2cc(C(O)c3cncn3Cc3ccccc3)ccc21` (stereo not drawn) [Compound 8] came in with a melting point of 188 °C.
Turning to `Cn1c(=O)cc(-c2cccc(Cl)c2)c2cc(C(NC3CC3)c3cncn3Cc3ccccc3)ccc21` (stereo not drawn) [Compound 9], the IC50 in data set [1] (setting [2]) is more than 100 nM. The inhibition at 0.1 µM in data set [1] came to 44%.
As for `COC(c1ccc2c(c1)c(-c1cccc(Cl)c1)cc(=O)n2C)c1cncn1Cc1ccccc1` (stereo not drawn) [Compound 10], the IC50 in data set [1] (setting [2]) was more than 100 nM. In addition, the inhibition at 0.1 µM in data set [1] is 43%.
Take `Cn1c(=O)cc(-c2cccc(Cl)c2)c2cc(C(N)c3cncn3Cc3ccccc3)ccc21` (stereo not drawn) [Compound 11]: the IC50 in data set [1] (setting [2]) was more than 100 nM. Further, the inhibition at 0.1 µM in data set [1] came out at 49%.
`Cn1c(=O)cc(-c2cccc(Cl)c2)c2cc(C(c3cncn3Cc3ccccc3)n3ccnc3)ccc21` (stereo not drawn) [Compound 12] yielded a melting point of 102 °C. Moreover, the IC50 in data set [1] (setting [2]) is more than 100 nM. The inhibition at 0.1 µM in data set [1] is 47%.
As for `CC(=O)NC(c1ccc2c(c1)c(-c1cccc(Cl)c1)cc(=O)n2C)c1cncn1Cc1ccccc1` (stereo not drawn) [Compound 13], the melting point amounted to 210 °C. For the same compound, the IC50 in data set [1] (setting [2]) was less than 100 nM. Also, in data set [1], the inhibition at 0.1 µM was 65%.
As for `N#Cc1ccc(Cn2cncc2C(O)c2ccc3c(c2)c(-c2cccc(Cl)c2)cc2nnnn23)cc1` (stereo not drawn) [Compound 14], the IC50 in data set [1] (read-out: pIC50 (converted)) is 10.8 nM. Further, the inhibition at 0.1 µM in data set [1] worked out at 87%.
On to `O=C(c1ccc2c(c1)c(-c1cccc(Cl)c1)cc(=O)n2CC1CC1)c1cncn1Cc1ccc(Cl)cc1` [Compound 16], for which the IC50 in data set [1] (setting [2]) was more than 100 nM. In addition, in data set [1], the inhibition at 0.1 µM turned out to be 18%.
As to `N#Cc1ccc(Cn2c(=O)cc(-c3cccc(Cl)c3)c3cc(C(=O)c4cncn4Cc4ccc(Cl)cc4)ccc32)cc1` [Compound 17], the IC50 in data set [1] (setting [2]) is more than 100 nM. Also, in data set [1], the inhibition at 0.1 µM is 33%.
